{
  "source": "patent US11865090B2",
  "about": "“Tumor suppressive microRNAs for cancer therapy” (Hadasit Medical Research Services and Development Ltd., priority 2018, dated 2024)",
  "key": {"miR-34a": {"system": "miR-34a", "experiment": "miR-34a expression and secretion in Huh7 cells (RT-qPCR)", "format": "cell-based, human", "details": "10 μM overnight", "experimental": "Huh7 cells treated with ROR-alpha agonist SR1078 (10 μM) overnight (o/n). Upon treatment, primary miR-34a expression levels and mature miR-34a secretion were elevated. miR-34a levels were tested in the cells and in their culture medium using RT-qPCR. The results clearly show elevation in the levels of miR-34a in the cells, as well as a marked elevation of the miR-34a in the external medium, indicating the miR-34a is secreted from the cells."}, "miR-122 promoter [1]": {"system": "miR-122 promoter", "experiment": "miR-122 promoter luciferase reporter (PmiR-122-900) in Huh7 cells", "format": "cell-based, human", "details": "10 μM overnight, measured 48 hours post transfection, normalized to Renilla", "experimental": "(§1) Huh7 cells or BNL-1ME cells were transfected with the reporter constructs PmiR-122-900 (wt) or PmiR-122-900 mutated (mut) at RORα binding site. These constructs harbour about 1 kb of miR-122 promoter sequence (wt or mutated at the ROR alpha binding site), ligated to a luciferase (Luc) reporter gene. […] Controls included incubation of the cells with 0.4% DMSO (negative control), or with 75 μM Lauric acid (LA), which is a known activator of ROR-alpha. Luciferase activity was measured 48 hours post transfection and normalized to Renilla Luciferase activity expressed from a co-transfected pRL plasmid."}, "miR-122 [2]": {"system": "miR-122", "experiment": "qRT-PCR of miR-122 in medium of Huh7 cells", "format": "cell-based, human", "details": "10 μM for 24 hours, normalized to spiked miR-39", "experimental": "Shown in FIG. 4C is qRT-PCR analysis of miR-122 and miR-18 (negative control) in RNA extracted from the medium of Huh7 cells treated with 0.4% DMSO, 75 μM lauric acid (LA) or 10 μM RORα agonist (SR1078) for 24 hours. The microRNA levels in the cells' medium were normalized to spiked C. elegance miR-39."}, "miR-122 [3]": {"system": "miR-122", "experiment": "In vivo miR-122 and CD24 mRNA levels after injection into BALB/C mice", "experimental": "As shown in FIG. 8A—SR1078 agent (ROR alpha activator) was injected (1-5 μM) into BALB/C mice and was able to induce miR-122 expression within 3 hours, as indicated by the increased relative expression levels of miR-122 in the liver. miRNA-122 increased expression is in hepatocytes (“producing cells”).\nThe CD24 gene, the protein product of which is expressed on hepatic progenitors, is a target of miR-122."}, "miR-122 promoter [4]": {"system": "miR-122 promoter", "experiment": "miR-122 promoter luciferase reporter (PmiR-122-900) in BNL-1ME cells", "format": "cell-based, mouse", "details": "10 μM overnight, measured 48 hours post transfection, normalized to Renilla", "experimental": "as §1"}, "miR-122 [5]": {"system": "miR-122", "experiment": "AGPAT1-3'UTR (miR-122 target site) luciferase reporter in Huh7 cells", "format": "cell-based, human", "details": "10 μM for 24 hours, DNMT1 3'-UTR as negative control", "experimental": "Next, Huh7 cells were transfected with a reporter plasmid carrying the human AGPAT1-3′UTR (miR-122 target site) or a negative control reporter plasmid, DNMT1 3′-UTR. Cells were treated for 24 hours with: 0.4% DMSO, or with 75 μM lauric acid (LA) or with RORα agonist (10 μM SR1078) for 24 hours. Presented in FIG. 4B are bar graphs showing the results of the Luciferase assay. Luciferase activity was measured 48 hours post transfection and normalized to Renilla Luciferase activity expressed from a co-transfected pRL plasmid."}, "miR-122 [6]": {"system": "miR-122", "experiment": "In vivo miR-122 and CD24 mRNA levels after injection into MDR2 knockout mice", "details": "three months old MDR2 KO mice, 6 hours after administration", "experimental": "Similar effect is also apparent in measurements performed 6 hours after administration of the inducing agent, to three months old MDR2 knockout (KO) mice (which is a mice that develops liver cancer). This is presented in FIGS. 8C-D, which show the increase in relative levels of miR-122 (FIG. 8C) in liver extracts (hepatocytes) and the reciprocal reduction of CD24 relative expression levels (FIG. 8D), in progenitor cells."}},
  "data": [
    {"smiles": "O=C(Nc1ccc(C(O)(C(F)(F)F)C(F)(F)F)cc1)c1ccc(C(F)(F)F)cc1", "note": "[SR1078]", "values": [
      {"measurement": "mature miR-34a secretion", "setting": "miR-34a; RT-qPCR in culture medium", "value": "elevated"},
      {"measurement": "primary miR-34a expression levels", "setting": "miR-34a; RT-qPCR in the cells", "value": "elevated"},
      {"measurement": "miR-122 promoter activity (Luciferase reporter)", "setting": "miR-122 promoter [1]", "value": "activation of the miR-122 promoter"},
      {"measurement": "miRNA-122 levels in the medium", "setting": "miR-122 [2]", "value": "increase"},
      {"measurement": "relative levels (RQ) of mRNA of CD24 in hepatic progenitor cells", "setting": "miR-122 [3]; after injection of SR1078", "value": "reduced"},
      {"measurement": "relative expression levels of miR-122 in the liver", "setting": "miR-122 [3]; injected (1-5 μM), 3 hours", "value": "increased"},
      {"measurement": "miR-122 promoter activity (Luciferase reporter)", "setting": "miR-122 promoter [4]", "value": "activation of the miR-122 promoter"},
      {"measurement": "expression of active miR-122 acting on AGPAT1 reporter construct (Luciferase assay)", "setting": "miR-122 [5]", "value": "increased expression of active miRNA"},
      {"measurement": "CD24 relative expression levels in progenitor cells", "setting": "miR-122 [6]", "value": "reduction"},
      {"measurement": "relative levels of miR-122 in liver extracts (hepatocytes)", "setting": "miR-122 [6]", "value": "increase"}
    ]}
  ]
}
